From paper PMC12560751 (RSC Advances, 2025)

Tests used:
Format in all cases: biochemical
recombinant hMAO B = molecular target: T1, recombinant hMAO B (Homo sapiens, UniProt P27338); assay: MAO B inhibition, fluorometric method; conditions: for inhibition at 100 µM / inhibition at 1000 µM: read-out: MAO B % inhibition; for Selectivity and indexes: selective for MAO-B (over MAO A)
T1 sequence (P27338 1-520): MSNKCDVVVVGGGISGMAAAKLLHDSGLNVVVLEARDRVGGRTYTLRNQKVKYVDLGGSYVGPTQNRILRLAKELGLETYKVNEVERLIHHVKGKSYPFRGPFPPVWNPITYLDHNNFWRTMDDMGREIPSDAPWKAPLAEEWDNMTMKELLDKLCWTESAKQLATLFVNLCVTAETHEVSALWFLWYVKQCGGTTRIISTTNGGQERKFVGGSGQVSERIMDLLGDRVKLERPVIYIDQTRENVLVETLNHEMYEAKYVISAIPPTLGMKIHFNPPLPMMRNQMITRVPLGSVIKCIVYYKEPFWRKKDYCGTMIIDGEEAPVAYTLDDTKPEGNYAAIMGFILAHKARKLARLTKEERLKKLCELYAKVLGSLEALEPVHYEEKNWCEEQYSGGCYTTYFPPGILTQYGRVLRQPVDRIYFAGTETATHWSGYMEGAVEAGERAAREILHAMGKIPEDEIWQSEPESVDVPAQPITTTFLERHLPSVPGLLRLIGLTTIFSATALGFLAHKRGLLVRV

BChE = BChE (Homo sapiens, UniProt P06276); assay: Anticholinesterase activity, modified colorimetric Ellman method; conditions: for inhibition at 100 µM / inhibition at 1000 µM: read-out: BChE % inhibition
Chain of BChE (P06276 29-602, species assumed): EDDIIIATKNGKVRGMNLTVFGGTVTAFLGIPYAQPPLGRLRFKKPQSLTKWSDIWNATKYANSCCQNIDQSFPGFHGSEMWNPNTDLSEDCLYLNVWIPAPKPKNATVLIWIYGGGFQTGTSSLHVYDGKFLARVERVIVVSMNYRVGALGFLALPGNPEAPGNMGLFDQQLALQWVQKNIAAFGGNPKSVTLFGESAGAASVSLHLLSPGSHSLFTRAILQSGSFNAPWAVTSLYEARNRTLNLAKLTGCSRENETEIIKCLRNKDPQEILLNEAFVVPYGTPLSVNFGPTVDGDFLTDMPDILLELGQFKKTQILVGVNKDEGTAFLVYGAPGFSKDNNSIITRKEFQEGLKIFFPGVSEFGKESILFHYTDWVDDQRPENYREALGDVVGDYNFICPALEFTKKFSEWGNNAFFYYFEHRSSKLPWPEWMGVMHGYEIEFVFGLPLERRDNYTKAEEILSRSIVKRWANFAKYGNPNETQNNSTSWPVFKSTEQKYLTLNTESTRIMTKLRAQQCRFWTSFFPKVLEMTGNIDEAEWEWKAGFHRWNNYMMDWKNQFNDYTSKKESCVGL

AChE = AChE (Homo sapiens, UniProt P22303); assay: as above; conditions: for inhibition at 100 µM / inhibition at 1000 µM: read-out: AChE % inhibition; for Selectivity and indexes: selective for AChE (over BChE)
Chain of AChE (P22303 32-614): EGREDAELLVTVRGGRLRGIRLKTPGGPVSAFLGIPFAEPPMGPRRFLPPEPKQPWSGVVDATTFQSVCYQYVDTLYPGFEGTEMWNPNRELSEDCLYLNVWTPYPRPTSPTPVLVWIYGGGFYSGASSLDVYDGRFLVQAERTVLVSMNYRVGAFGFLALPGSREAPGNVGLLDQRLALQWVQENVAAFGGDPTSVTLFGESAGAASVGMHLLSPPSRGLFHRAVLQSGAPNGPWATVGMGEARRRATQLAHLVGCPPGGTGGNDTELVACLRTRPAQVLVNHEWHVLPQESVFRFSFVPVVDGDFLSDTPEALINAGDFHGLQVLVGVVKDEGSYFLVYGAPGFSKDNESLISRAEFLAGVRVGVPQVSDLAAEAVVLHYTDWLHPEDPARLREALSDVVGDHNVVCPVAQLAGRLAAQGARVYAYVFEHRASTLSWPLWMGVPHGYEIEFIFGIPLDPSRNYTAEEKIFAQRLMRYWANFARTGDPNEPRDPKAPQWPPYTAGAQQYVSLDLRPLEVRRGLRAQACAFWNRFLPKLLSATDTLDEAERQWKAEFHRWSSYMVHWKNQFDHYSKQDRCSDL

hMAO A = molecular target: T2, hMAO A (Homo sapiens, UniProt P21397); assay: MAO A inhibition, fluorometric method; conditions: for inhibition at 100 µM / inhibition at 1000 µM: read-out: MAO A % inhibition
T2 sequence (P21397 1-527): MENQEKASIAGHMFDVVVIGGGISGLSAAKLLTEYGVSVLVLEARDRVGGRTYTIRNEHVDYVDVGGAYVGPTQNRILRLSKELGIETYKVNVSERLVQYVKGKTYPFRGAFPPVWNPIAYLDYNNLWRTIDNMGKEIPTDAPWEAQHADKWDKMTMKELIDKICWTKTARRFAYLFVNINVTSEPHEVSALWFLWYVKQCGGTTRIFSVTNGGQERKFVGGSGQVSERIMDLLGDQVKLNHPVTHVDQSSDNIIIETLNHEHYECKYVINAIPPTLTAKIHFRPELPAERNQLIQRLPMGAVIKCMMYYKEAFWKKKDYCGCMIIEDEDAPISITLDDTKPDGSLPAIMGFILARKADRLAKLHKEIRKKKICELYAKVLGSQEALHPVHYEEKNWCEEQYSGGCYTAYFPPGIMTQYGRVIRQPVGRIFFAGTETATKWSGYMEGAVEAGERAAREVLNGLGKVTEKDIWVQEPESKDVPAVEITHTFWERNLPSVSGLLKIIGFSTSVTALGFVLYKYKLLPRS

Row | Structure (SMILES) | IC50 (recombinant hMAO B; MAO B IC50, tables) [µM] | inhibition at 100 µM (recombinant hMAO B) [%] | inhibition at 1000 µM (recombinant hMAO B) [%] | IC50 (BChE) [µM] | inhibition at 100 µM (BChE) [%] | inhibition at 1000 µM (BChE) [%] | IC50 (AChE) [µM] | inhibition at 100 µM (AChE) [%] | inhibition at 1000 µM (AChE) [%] | IC50 (hMAO A) [µM] | inhibition at 100 µM (hMAO A) [%] | inhibition at 1000 µM (hMAO A) [%] | Selectivity and indexes (AChE) | IC50 (recombinant hMAO B; MAO B IC50, text) [µM] | inhibition at 10 µM (recombinant hMAO B; read-out: MAO B inhibition) [%] | Selectivity and indexes (recombinant hMAO B)
1 | COc1ccc(C(=O)C=Cc2ccc(NC(=O)CN3CCN(C(C)C)CC3)cc2)cc1OC [Compound 4c, N-(4-(3-(3,4-Dimethoxyphenyl)-3-oxoprop-1-en-1-yl)phenyl)-2-(4-isopropylpiperazin-1-yl)acetamide] | > 1000 | 28.9 ± 1.02 | 41.1 ± 0.941 | > 1000 | 25.5 ± 1.1 | 46 ± 1.92 | > 100 | 48.2 ± 1.98 | 79.2 ± 3.03 | > 1000 | 39 ± 0.933 | 47.4 ± 0.836 | – | – | – | –
2 | COCCN1CCN(CC(=O)Nc2ccc(C=CC(=O)c3ccc(OC)c(OC)c3)cc2)CC1 [Compound 4h, N-(4-(3-(3,4-Dimethoxyphenyl)-3-oxoprop-1-en-1-yl)phenyl)-2-(4-(2-methoxyethyl)piperazin-1-yl)acetamide] | > 100 | 41.3 ± 0.916 | 79.5 ± 2.86 | > 1000 | 21.5 ± 0.874 | 30.2 ± 1.13 | 0.12 ± 0.005 | 86.5 ± 1.35 | 90.6 ± 2.75 | > 100 | 28.6 ± 1.05 | 59.9 ± 2.24 | AChE/>1000 | – | – | –
3 | COc1ccc(C(=O)C=Cc2ccc(NC(=O)CN3CCN(C=O)CC3)cc2)cc1OC [Compound 4f, N-(4-(3-(3,4-Dimethoxyphenyl)-3-oxoprop-1-en-1-yl)phenyl)-2-(4-formylpiperazin-1-yl)acetamide] | 0.137 ± 0.005 | 88.6 ± 1.83 | 90.7 ± 2.62 | > 1000 | 24.3 ± 0.829 | 31.7 ± 1.37 | 0.048 ± 0.002 | 94.8 ± 3.96 | 96.8 ± 2.93 | > 1000 | 28.8 ± 0.861 | 40.8 ± 0.955 | AChE/>1000 | < 1 | 88.6 ± 1.83 | MAO-B/>1000
4 | COc1ccc(C(=O)C=Cc2ccc(NC(=O)CN3CCN(S(C)(=O)=O)CC3)cc2)cc1OC [Compound 4m, N-(4-(3-(3,4-Dimethoxyphenyl)-3-oxoprop-1-en-1-yl)phenyl)-2-(4-(methylsulfonyl)piperazin-1-yl)acetamide] | > 100 | 29 ± 0.826 | 58 ± 1.63 | > 1000 | 33.3 ± 1.22 | 37.3 ± 0.961 | 0.158 ± 0.006 | 87.6 ± 1.72 | 89.4 ± 2.59 | > 1000 | 33.6 ± 1.32 | 39.4 ± 1.37 | AChE/>1000 | – | – | MAO-B/>10
5 | COc1ccc(C(=O)C=Cc2ccc(NC(=O)CN3CCN(C4CCCC4)CC3)cc2)cc1OC [Compound 4l, 2-(4-Cyclopentylpiperazin-1-yl)-N-(4-(3-(3,4-dimethoxyphenyl)-3-oxoprop-1-en-1-yl)phenyl)acetamide] | > 1000 | 29.7 ± 0.841 | 46.7 ± 1.15 | > 1000 | 32.7 ± 1.35 | 41 ± 2 | > 100 | 40.3 ± 1.82 | 76.9 ± 2.36 | > 1000 | 30.4 ± 1.25 | 36.7 ± 0.984 | – | – | – | –
6 | COc1ccc(C(=O)C=Cc2ccc(NC(=O)CN3CCN(C)CC3)cc2)cc1OC [Compound 4a, N-(4-(3-(3,4-Dimethoxyphenyl)-3-oxoprop-1-en-1-yl)phenyl)-2-(4-methylpiperazin-1-yl)acetamide] | 0.274 ± 0.012 | 80.5 ± 2.24 | 84 ± 1.93 | > 1000 | 24.6 ± 0.974 | 42.5 ± 1.85 | 0.068 ± 0.003 | 90.3 ± 1.86 | 93.5 ± 3.16 | > 1000 | 38.7 ± 1.06 | 47.7 ± 2.04 | AChE/>1000 | < 1 | – | MAO-B/>1000
